Measured values published in US10905680B2, “Methods of treatment for cholestatic and fibrotic diseases” (Genfit, priority 2016, dated 2021).

Columns and labels:
[1] = tested on: human primary hepatic stellate cells (hHSC); experiment: COL1A1 transcripts in TGFβ1-induced human HSC (RT-qPCR); assay type: cell-based; details: TGFβ1 1 ng/ml, 24 hours
Method: Serum-deprived HSC were preincubated for 1 hour with NTZ (A) or TZ (B) before the activation with TGFβ1 (1 ng/ml). After 24 hours of incubation, the expression of COL1A1 was measured by RT-qPCR. Expression values were transformed into fold induction over TGFβ1 control. Data are presented as mean (triplicates)±standard deviation (SD). Statistical analyses were performed by one-way ANOVA followed by Bonferroni post-hoc tests, using Sigma Plot 11.0 software. [*: p<0.05; **: p<0.01; ***: p<0.001 (comparison versus TGFβ1 1 ng/mL group)]. The human primary hepatic stellate cells (hHSC) (Innoprot) were cultured under standard conditions, as described above. The cells were subsequently plated at a density of 7×10^4 cells/well into 24-well plates for gene expression studies, and at a density of 2×10^4 cells/well into 96-well plates for the measure of α-SMA by ELISA. The next day, cell culture medium was removed, and cells were washed with PBS (Invitrogen cat #14190). hHSC were deprived for 24 hours in serum-free and SteCGS-free medium. […] Quantitative PCR was then carried out using the MyiQ Single-Color Real-Time PCR Detection System (Biorad). […] Expression levels were determined using the standard curve equation for both the housekeeping gene and the target gene (taking into account the specific PCR efficiency of each target gene).

[2] = tested on: Normal Human Cardiac Fibroblasts (ventricle) (NHCF-V); experiment: TGFβ1-induced expression of α-SMA protein in human cardiac fibroblasts (ELISA); assay type: cell-based; details: concentration of 1 μM; TGFβ1 3 ng/ml, 48 hours
Method: NTZ (A) or TZ (B) were added to serum-deprived cardiac fibroblasts (NHCF) 1 hour before the activation with TGFβ1 (3 ng/ml). After 48 hours of incubation, the expression of α-SMA was measured by ELISA. The obtained values were transformed into percentage inhibition over TGFβ1 control. Data are presented as mean (triplicates)±standard deviation (SD). Statistical analyses were performed by one-way ANOVA followed by Bonferroni post-hoc tests, using Sigma Plot 11.0 software. [*: p<0.05; **: p<0.01; ***: p<0.001 (comparison versus TGFβ1 3 ng/mL group)].
The Normal Human Cardiac Fibroblasts (ventricle) (NHCF-V) (Lonza) were isolated from normal adult heart tissue. Cells were cultured in Fibroblast Basal Medium (FBM) (Lonza cat # CC-3131) that was supplemented with FGM™-3 BulletKit™ kit (Lonza cat # CC-4525). The complete medium contains 10% fetal bovine serum. For the activation experiments with TGFβ1, the NHCF-V were plated at a density of 6×10^3 cells per well in 96-well plates. The next day, cell-culture medium was removed, and cells were washed with PBS (Invitrogen cat #14190). NHCF were deprived for 24 hours in serum-free, insulin-free and rhFGF-B-free medium. […]
The level of α-SMA was measured using a Sandwich ELISA. […]

O=C(Nc1ncc([N+](=O)[O-])s1)c1ccccc1O [TZ, 2-hydroxy-N-(5-nitro-2-thiazolyl)benzamide]
COL1A1 transcripts [1]: reduce
antifibrotic effects (α-SMA) in normal human cardiac fibroblasts [2]: significant antifibrotic effects
